From patent US9546150B2, “Substituted quinazolin-4-ones for inhibiting ubiquitin specific protease 7” (HYBRIGENICS SA, priority 2011, dated 2017)

How the values were obtained:
Type in all cases: biochemical
[1] = molecular target: T1, CYLD (Homo sapiens, UniProt Q9NQC7); test: HAUbVS competition assay in HEK293 cell lysates, CYLD; settings: 12.5-200 μM
T1 sequence (Q9NQC7 1-956): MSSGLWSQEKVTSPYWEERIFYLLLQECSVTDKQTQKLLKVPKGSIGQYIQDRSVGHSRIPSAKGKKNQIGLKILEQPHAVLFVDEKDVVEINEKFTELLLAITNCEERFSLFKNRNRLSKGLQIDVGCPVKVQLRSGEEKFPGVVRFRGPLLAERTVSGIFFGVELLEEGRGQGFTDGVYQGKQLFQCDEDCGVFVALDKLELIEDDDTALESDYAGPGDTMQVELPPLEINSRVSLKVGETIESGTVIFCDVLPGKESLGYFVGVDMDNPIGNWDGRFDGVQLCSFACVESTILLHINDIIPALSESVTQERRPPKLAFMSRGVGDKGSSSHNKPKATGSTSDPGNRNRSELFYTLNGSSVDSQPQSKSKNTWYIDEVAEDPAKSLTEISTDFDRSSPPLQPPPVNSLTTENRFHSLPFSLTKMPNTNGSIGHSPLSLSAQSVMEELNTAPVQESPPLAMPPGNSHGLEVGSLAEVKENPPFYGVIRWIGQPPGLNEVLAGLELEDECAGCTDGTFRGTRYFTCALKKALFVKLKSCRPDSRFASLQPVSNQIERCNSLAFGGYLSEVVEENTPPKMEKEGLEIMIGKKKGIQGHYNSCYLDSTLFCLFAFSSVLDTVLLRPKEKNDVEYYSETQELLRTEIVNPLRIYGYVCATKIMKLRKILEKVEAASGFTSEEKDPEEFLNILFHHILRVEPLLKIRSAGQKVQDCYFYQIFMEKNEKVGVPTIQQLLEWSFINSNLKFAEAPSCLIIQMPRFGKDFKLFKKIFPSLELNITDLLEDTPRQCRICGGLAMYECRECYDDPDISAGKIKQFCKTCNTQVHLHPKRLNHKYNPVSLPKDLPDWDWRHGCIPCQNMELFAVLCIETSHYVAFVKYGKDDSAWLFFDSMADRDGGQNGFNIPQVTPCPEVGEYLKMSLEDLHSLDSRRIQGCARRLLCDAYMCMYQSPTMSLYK

[2] = molecular target: T2, USP7 (Homo sapiens, UniProt Q93009); test: Time-dependent pre-incubation experiment with USP7, Ub-AMC; set-up: Full-length wild-type human USP7 and its catalytic mutant; His tag (pFastBac-HT vector) (N); made in house; host or cells: Spodoptera frugiperda Sf9 (or High Five) insect cells, baculovirus
T2 sequence (Q93009 whole entry): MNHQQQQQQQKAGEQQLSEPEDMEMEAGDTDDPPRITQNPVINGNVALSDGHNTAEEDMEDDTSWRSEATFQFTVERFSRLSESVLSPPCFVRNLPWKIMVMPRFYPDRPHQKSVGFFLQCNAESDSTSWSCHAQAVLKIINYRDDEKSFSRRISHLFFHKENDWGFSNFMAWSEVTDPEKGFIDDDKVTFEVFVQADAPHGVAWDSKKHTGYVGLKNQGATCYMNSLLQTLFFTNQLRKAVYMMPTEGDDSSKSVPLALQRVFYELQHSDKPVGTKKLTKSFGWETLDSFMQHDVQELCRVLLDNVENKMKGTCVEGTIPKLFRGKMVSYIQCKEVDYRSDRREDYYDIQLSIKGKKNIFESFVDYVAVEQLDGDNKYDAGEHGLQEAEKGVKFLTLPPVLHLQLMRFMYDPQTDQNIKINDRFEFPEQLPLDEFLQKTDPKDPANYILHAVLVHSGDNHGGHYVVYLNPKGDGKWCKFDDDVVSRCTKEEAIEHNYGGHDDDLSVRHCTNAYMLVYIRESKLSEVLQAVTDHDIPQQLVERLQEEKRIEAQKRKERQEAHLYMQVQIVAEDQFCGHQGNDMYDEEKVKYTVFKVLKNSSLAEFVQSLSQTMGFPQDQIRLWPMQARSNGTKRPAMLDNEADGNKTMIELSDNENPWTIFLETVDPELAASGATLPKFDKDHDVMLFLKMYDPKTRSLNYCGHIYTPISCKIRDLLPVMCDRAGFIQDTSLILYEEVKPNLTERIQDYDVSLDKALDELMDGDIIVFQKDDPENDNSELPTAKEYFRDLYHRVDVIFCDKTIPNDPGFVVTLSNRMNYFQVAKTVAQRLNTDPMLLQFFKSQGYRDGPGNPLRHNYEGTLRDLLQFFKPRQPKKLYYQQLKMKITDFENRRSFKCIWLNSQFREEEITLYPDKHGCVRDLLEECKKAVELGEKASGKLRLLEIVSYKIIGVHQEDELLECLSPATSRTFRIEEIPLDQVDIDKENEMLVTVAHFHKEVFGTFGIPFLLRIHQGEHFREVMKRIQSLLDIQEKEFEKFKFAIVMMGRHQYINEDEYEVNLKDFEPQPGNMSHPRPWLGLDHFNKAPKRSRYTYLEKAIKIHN
Method: To better understand the mechanism of inhibition of USP7 by our USP7-specific compounds, several experiments were performed. […] […].

[3] = molecular target: T2, USP7; test: Reversibility of USP7 inhibition after G50 gel filtration; set-up: Full-length wild-type human USP7 and its catalytic mutant; His tag (pFastBac-HT vector) (N); made in house; host or cells: Spodoptera frugiperda Sf9 (or High Five) insect cells, baculovirus; settings: 100 μM, 4 h at room temperature, USP7 100 pM
Method: The reversibility of inhibition was next determined by measuring the recovery of enzymatic activity after gel filtration. […] We passed some of each sample through a G50 gel filtration system (Sephadex, G50 superfine, Sigma Aldricht). The deubiquitinating activity of the G50 eluates was assessed with the Ub-AMC substrate, as described above, and compared with that of samples not subjected to G50 filtration. The reactions were monitored using the PHERAstar (BMG Labtech).

[4] = molecular target: T3, USP8 (Homo sapiens, UniProt P40818); test: HAUbVS competition assay in HEK293 cell lysates, USP8; set-up: His tag (pFastBac-HT vector); made in house; settings: 12.5-200 μM
T3 sequence (P40818 1-1118): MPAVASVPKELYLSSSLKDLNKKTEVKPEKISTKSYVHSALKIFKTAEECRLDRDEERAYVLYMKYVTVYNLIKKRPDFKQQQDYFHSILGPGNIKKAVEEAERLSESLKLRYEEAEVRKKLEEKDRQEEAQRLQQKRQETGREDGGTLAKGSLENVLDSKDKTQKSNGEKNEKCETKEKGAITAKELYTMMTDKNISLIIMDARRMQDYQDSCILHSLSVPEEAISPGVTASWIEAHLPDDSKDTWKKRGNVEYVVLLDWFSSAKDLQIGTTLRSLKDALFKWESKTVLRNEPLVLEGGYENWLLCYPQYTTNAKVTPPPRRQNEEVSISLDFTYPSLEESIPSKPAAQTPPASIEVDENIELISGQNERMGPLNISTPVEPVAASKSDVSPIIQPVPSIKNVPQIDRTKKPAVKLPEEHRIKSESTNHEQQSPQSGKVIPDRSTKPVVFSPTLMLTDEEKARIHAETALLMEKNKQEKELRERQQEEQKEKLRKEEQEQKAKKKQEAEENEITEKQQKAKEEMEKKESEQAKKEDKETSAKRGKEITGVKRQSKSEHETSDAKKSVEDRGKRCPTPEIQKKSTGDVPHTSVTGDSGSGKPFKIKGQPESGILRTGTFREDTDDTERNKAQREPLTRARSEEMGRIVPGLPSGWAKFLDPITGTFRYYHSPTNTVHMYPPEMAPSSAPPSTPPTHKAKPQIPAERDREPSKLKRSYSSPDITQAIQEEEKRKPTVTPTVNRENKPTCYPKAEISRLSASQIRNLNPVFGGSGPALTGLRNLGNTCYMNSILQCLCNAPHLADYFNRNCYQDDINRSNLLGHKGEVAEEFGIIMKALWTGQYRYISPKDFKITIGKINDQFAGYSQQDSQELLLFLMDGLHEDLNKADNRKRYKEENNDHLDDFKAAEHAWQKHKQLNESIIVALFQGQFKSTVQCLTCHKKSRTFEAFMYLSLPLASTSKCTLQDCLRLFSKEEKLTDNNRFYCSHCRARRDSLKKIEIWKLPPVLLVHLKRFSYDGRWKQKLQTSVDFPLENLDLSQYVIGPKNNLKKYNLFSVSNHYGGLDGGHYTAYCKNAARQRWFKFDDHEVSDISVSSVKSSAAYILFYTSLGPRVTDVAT
Method: The HA-Ub-VS probe (Hemagglutin tag-Ubiquitin-Vinyl Sulfone) was used in this study to directly visualize the activity of all deubiquitinating enzymes from native proteomes.
HEK293 cells were harvested and lysed on ice with a non denaturating buffer containing Tris pH7.4, 50 mM; NaCl, 150 mM; MgCl2, 5 mM; EDTA, 0.5 mM; DTT, 2 mM; ATP (adenosine triphosphate), 2 mM; NP40 (nonyl phenoxypolyethoxylethanol), 0.5% and glycerol, 10%. Samples were incubated at 4° C. for 1 hour and clarified. Proteins were then quantified by Bradford method (Bio-Rad Protein Assay). […] The ubiquitin labeling reaction was initiated by the addition of HA-Ub-VS (8 μg/ml) in labeling buffer (Tris pH7.6, 50 mM; MgCl2, 5 mM; EDTA, 0.5 mM; DTT, 2 mM; ATP, 2 mM; sucrose, 250 mM) and incubated at room temperature for 15 min. Samples were next heated at 100° C. for 10 minutes and briefly sonicated. They were resolved by SDS-polyacrylamide gel electrophoresis (SDS-PAGE), transferred to a nitrocellulose membrane and probed with antibodies against USP7, HA, UCH-L3, CYLD, USP8, USP5, USP10 and Stat3. […] Signals were detected by enhanced chemiluminescence (ECL; Amersham) according to the reagent manufacturer's instructions.

| SMILES | blocking of HAUbVS labeling of CYLD [1] | time dependence of USP7 inhibition ([2]; 100 μM, pre-incubation 30 min, 1 h, 2 h, 4 h, 6 h) | inhibition at 100 µM ([2]; USP7 100 pM, pre-incubation 30 min to 6 h, Ub-AMC) | recovery of USP7 activity after G50 gel filtration [3] | blocking of HAUbVS labeling of USP8 [4] |
| --- | --- | --- | --- | --- | --- |
| O=C(CCc1ccccc1)N1CCC(O)(Cn2cnc3cc(Cl)ccc3c2=O)CC1 [Example 2, 7-chloro-3-{[4-hydroxy-1-(3-phenylpropanoyl)piperidin-4-yl]methyl}-3,4-dihydroquinazolin-4-one] | without any cross-reaction | not a time-dependent inhibitor | ~75% |  |  |
| O=C(CCC1CCCC1)N1CCC(O)(Cn2cnc3ccccc3c2=O)CC1 [Example 3, 3-{[1-(3-cyclopentylpropanoyl)-4-hydroxypiperidin-4-yl]methyl}-3,4-dihydroquinazolin-4-one] |  |  |  | total restoration of USP7 activity |  |
| CC(Cc1cccs1)C(=O)N1CCC(O)(Cn2cnc3ccccc3c2=O)CC1 (stereo not drawn) [Example 5, 3-({4-hydroxy-1-[2-methyl-3-(thiophen-2-yl)propanoyl]piperidin-4-yl}methyl)-3,4-dihydroquinazolin-4-one] | without any cross-reaction |  |  |  | without any cross-reaction |
